Assay results reported in the NIST ThermoML archive (doi:10.1021/je050170x).

How the values were obtained:
[1] = for surface tension liquid-gas: Wilhelmy-plate method; for mass density / viscosity: 101.33 kPa, Liquid; for viscosity: Capillary tube (Ostwald / Ubbelohde) method
[2] = refractive index (Na D-line) (dimensionless); details: 101.33 kPa, Liquid, Standard Abbe refractometry

CCOC(=O)c1ccccc1 [ethyl benzoate]
Details | mass density, [1] [kg/m3] | refractive index, [2] | surface tension liquid-gas, [1] [mN/m] | viscosity, [1] [mPa·s]
288.15 K | 1050.78 | 1.5076 | 35.7 | 2.444
298.15 K | 1041.42 | 1.50328 | 34.6 | 1.971
308.15 K | 1032.07 | 1.49863 | 33.3 | 1.623
318.15 K | 1022.73 | 1.49391 | 32.5 | 1.368
328.15 K | 1013.4 | 1.48946 | 31.5 | 1.169
338.15 K | 1004.06 | 1.4847 | 30.2 | 1.016
348.15 K | 994.7 | 1.48004 | 29.3 | 0.89
358.15 K | 985.31 | 1.47526 | 28.4 | 0.784

CCOC(=O)c1ccccc1O [ethyl 2-hydroxybenzoate]
Details | mass density, [1] [kg/m3] | refractive index, [2] | surface tension liquid-gas, [1] [mN/m] | viscosity, [1] [mPa·s]
288.15 K | 1134.72 | 1.52481 | 37.5 | 3.694
298.15 K | 1125 | 1.52022 | 36.3 | 2.831
308.15 K | 1115.29 | 1.51573 | 35.2 | 2.253
318.15 K | 1105.6 | 1.51116 | 34.4 | 1.842
328.15 K | 1095.94 | 1.50646 | 33.4 | 1.53
338.15 K | 1086.24 | 1.50191 | 32 | 1.305
348.15 K | 1076.6 | 1.49744 | 31 | 1.126
358.15 K | 1066.83 | 1.49296 | 30.2 | 0.984

CC(=O)OCc1ccccc1 [benzyl ethanoate]
Details | mass density, [1] [kg/m3] | refractive index, [2] | surface tension liquid-gas, [1] [mN/m] | viscosity, [1] [mPa·s]
288.15 K | 1060.11 | 1.50439 | 37.7 | 2.53
298.15 K | 1050.75 | 1.49982 | 36.4 | 2.056
308.15 K | 1041.39 | 1.49539 | 35.3 | 1.703
318.15 K | 1032.03 | 1.49064 | 34.1 | 1.432
328.15 K | 1022.67 | 1.48623 | 33.2 | 1.229
338.15 K | 1013.29 | 1.48157 | 32.2 | 1.059
348.15 K | 1003.89 | 1.47701 | 31.1 | 0.941
358.15 K | 994.45 | 1.47233 | 30.1 | 0.826

CCOC(=O)CC(C)C [ethyl 3-methylbutanoate]
Details | mass density, [1] [kg/m3] | refractive index, [2] | surface tension liquid-gas, [1] [mN/m] | viscosity, [1] [mPa·s]
288.15 K | 869.66 | 1.3988 | 24.4 | 0.853
298.15 K | 859.78 | 1.39401 | 23.5 | 0.739
308.15 K | 849.83 | 1.38931 | 22.5 | 0.642
318.15 K | 839.81 | 1.38458 | 21.6 | 0.566
328.15 K | 829.71 | 1.37978 | 20.7 | 0.504
338.15 K | 819.52 | 1.37492 | 19.6 | 0.452
348.15 K | 809.2 | 1.37002 | 18.7 | 0.408
358.15 K | 798.73 | 1.36524 | 17.6 | 0.367

CCOC(=O)CC(C)=O [ethyl 3-oxobutanoate]
Details | mass density, [1] [kg/m3] | refractive index, [2] | surface tension liquid-gas, [1] [mN/m] | viscosity, [1] [mPa·s]
288.15 K | 1033.92 | 1.42091 | 33.3 | 1.902
298.15 K | 1023.45 | 1.41658 | 32.3 | 1.581
308.15 K | – | 1.41246 | 31.1 | 1.344
318.15 K | – | 1.40803 | 30 | 1.144
328.15 K | 992.26 | 1.40386 | 29.1 | 0.981
338.15 K | 981.58 | 1.39949 | 28.2 | 0.847
348.15 K | 971.05 | 1.3951 | 27 | 0.736
358.15 K | 960.46 | 1.39061 | 26.1 | 0.644

CCCC(=O)OCCC(C)C [3-methylbutyl butanoate]
Details | mass density, [1] [kg/m3] | refractive index, [2] | surface tension liquid-gas, [1] [mN/m] | viscosity, [1] [mPa·s]
288.15 K | 867.72 | 1.41259 | 25.7 | 1.317
298.15 K | 858.69 | 1.40815 | 24.7 | 1.111
308.15 K | 849.62 | 1.40374 | 24 | 0.952
318.15 K | 840.55 | 1.39927 | 23.1 | 0.827
328.15 K | 831.47 | 1.39506 | 22.4 | 0.724
338.15 K | 822.35 | 1.39055 | 21.6 | 0.641
348.15 K | 813.19 | 1.386 | 20.5 | 0.573
358.15 K | 803.96 | 1.38139 | 19.7 | 0.511
